Here are results for two compounds from patent US10196442B2, “Methods of inhibiting growth of a colon cancer tumor in a subject by administering monoclonal antibodies to G protein-coupled receptor 49 (GPR49)” (Bionomics Inc., priority 2011, dated 2019).

For test [1], the target named is T1, GPR49 (Homo sapiens, UniProt O75473).
T1 construct: endogenous in cells; host or cells: Lovo colon tumor cells
T1 sequence (O75473 22-907): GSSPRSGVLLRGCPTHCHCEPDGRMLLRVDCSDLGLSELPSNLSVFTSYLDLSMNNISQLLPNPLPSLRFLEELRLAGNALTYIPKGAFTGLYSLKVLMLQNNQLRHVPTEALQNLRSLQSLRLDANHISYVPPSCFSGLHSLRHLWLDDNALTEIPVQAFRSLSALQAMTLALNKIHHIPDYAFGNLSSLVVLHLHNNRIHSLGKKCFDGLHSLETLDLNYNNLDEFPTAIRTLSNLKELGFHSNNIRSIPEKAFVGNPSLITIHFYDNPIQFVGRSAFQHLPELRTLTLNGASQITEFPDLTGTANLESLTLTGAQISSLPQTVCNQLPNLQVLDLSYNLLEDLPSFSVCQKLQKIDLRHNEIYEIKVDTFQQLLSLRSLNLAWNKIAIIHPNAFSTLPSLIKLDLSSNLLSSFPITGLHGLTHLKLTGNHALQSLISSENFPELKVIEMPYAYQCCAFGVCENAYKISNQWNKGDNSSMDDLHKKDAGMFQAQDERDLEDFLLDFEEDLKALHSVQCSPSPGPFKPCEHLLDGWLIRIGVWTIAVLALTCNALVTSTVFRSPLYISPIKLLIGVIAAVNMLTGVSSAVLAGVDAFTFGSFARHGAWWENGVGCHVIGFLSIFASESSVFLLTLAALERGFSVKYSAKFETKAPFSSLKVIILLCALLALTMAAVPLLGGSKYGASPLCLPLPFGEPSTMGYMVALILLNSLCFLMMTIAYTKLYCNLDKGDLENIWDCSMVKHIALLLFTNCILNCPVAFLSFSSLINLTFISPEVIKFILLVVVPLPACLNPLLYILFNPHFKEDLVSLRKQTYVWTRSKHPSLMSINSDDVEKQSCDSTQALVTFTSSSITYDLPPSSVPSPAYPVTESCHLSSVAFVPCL
Description: Internalization of GPR49 in Lovo colon tumor cells (confocal). The test is classed as cell-based. To be noted: 10 ug/ml, 37° C., 60 min. As to the method: Methods: Lovo colon tumor cells were seeded at 50,000 cells per well into 8 well chamber slides (Becton Dickinson Collagen Type 1 coated culture slides, BD BioCoat™#354630) 48 hours prior to staining procedures. Cells were routinely maintained below 20 passages. On day of staining procedures, culture media was discarded from each well and replaced with 500 ul cold incubation buffer (MEM Eagle ATCC #30-2003+1% BSA). Cells were washed 2× with this buffer for 3 min each wash. 250 ul of each mAb (76C12, 78F05 and murine 10A9.2) to be tested was then added to the appropriate well at a concentration of 10 ug/ml, diluted in incubation media, and incubated on ice for 1 hour. A human anti-human-IGF-1R antibody was used as a positive control to compare degree of internalization. Antibody 5A7 (anti-Id mAb), IDEC152 (anti-CD23 IgG1 mAb) and no antibody were used as negative controls. After the 45 minutes incubation on ice, the time zero (1=0′) slide washed 3× with 500 ul of cold wash buffer (PBS+1% BSA+2% Goat serum) for 3 min each wash (slides always kept on ice). The t=0 slide was then fixed with 500 ul […] (diluted with PBS from 16% stock; EMS #15710) for 15 minutes at room temperature. The t=0 slide was then washed again 3× with cold wash buffer for 3 minutes each wash, then left on ice. […]

Test [2] relates to CT1 primary xenograft cells. Description: CT1 primary xenograft, murine mAbs in combination with Irinotecan. To be noted: Irinotecan 10 mg/kg IP once per day for the first 5 days. In kind it is in vivo, SCID beige female mice. On the procedure: Single agent in vivo efficacy of murine antibodies 14F7.1, 18G7.1, 5B10.1, 14A8.1, 1B3.5 was evaluated in a primary colon tumor xenograft model system using CT1 primary xenograft cells. CT1 is a primary colorectal (CRC) in vivo xenograft tumor established from a fresh CRC patient tumor sample. The mutational status was determined by Ion Torrent deep sequencing to identify oncogene mutations. Approximately 5-15% of CT1 tumors express GPR49. SCID beige female mice were inoculated with CT1 tumor cells and monitored for tumor growth. Mice were randomized at day 0 into groups of 10 when mean tumor volume reached 175 mm^3. Chemotherapeutic Irinotecan was administered IP at 10 mg/kg once per day for the first 5 days. The antibodies were administered intraperitoneally (i.p.) at 15 mg/kg administered twice weekly for 4 weeks. Tumors were measured at the indicated intervals post-inoculation for total tumor volume.

Test [3] deals with colon tumor cells. Description: Secondary transplant tumor formation after GPR49 mAb+irinotecan (Example 30). In kind it is in vivo, mice. To be noted: 140 day follow-up. An excerpt: Isolated tumor cells from control or GPR49 mAb+irinotecan treated tumors from the in vivo study outlined in Example 3 were harvested, pooled, dissociated and re-implanted in a limiting dilution secondary transplant assay to measure cancer stem cell frequency. For each treatment group, 8 mice were implanted with 10, 30, 100 cells. […]

Regarding “IDEC152: primatized anti-CD23 IgG1 mAb, negative control”, the “internalization of GPR49” value in test [1] was “did not bind or internalize”.

As for `CCc1c2c(nc3ccc(OC(=O)N4CCC(N5CCCCC5)CC4)cc13)-c1cc3c(c(=O)n1C2)COC(=O)[C@]3(O)CC` [Irinotecan], in test [2], the “tumor inhibition by Irinotecan alone” value is on record as 45%. The “average size of tumors” value in test [3] (cells from irinotecan treated tumors) worked out at 1729 mm^3. The mice with tumors in test [3] (cells from pre-treated tumors) was 5/8.
